Assay results taken from patent US20200239398A1, “METHYLENE-CYCLOALKYLACETATE DERIVATIVES AND THEIR USE IN TREATMENT OF NEUROTROPIC CONDITIONS” (Yissum Research Development Company of The Hebrew …, priority 2018, published 2020).
Where two headings read alike, the source gives them in different places.

Key:
[1] = system: PC12 cells; assay: PC12 cell neurotropic assay (neurite outgrowth); type: cell-based, rat; settings: 10 μM
Procedure: PC12 cells were grown in T-200 flasks in high glucose (4.5 gr/L) DMEM medium supplemented with 7% FCS, 7% horse serum and 1% penicillin and streptomycin. Cells were incubated at 37° C. in a humidified incubator containing 6% CO2. All experiments were carried out in a clean room, according to ISO7 requirements (10,000 particles/m^3).
Tissue culture Falcon plates were coated with 200 μg/ml collagen type 1 and placed under UV light for 30 minutes for sterilization. Thereafter, one ml of PC12 cell suspension (5000 cells/well) was applied in 12 or 24 well plate, respectively. The cultures were grown in the incubator two days before exposure to investigated compound.
This experimental procedure contained two controls. The first consisted of untreated cells (negative control), representing the random effect: “noise signal”—the ability of cells to spontaneously grow neurite outgrowth which in seven days are of a length less than two-fold cell diameter. Also, negative controls consisted of cultures treated with 1% DMSO, solvent used to solubilize all compounds. The positive control consisted of cells treated with 50 ng/ml NGF, indicating maximal neurite outgrowth that can be achieved in this model. The experimental group consisted of PC12 cells treated with synthetic compounds. In each experiment, after two and seven days, six cultures were evaluated for neurotropic effect. These consecutive observations allow measurement of the progress of neurite outgrowth elongation and the percentage of cells with neurites.^31
In order to assess neurotropic effect, the neurite outgrowth length in each culture was quantified. For this purpose, each culture was placed under an inverted microscope and photographed by the attached camera. Each well was photographed at three to five representative areas. After acquiring the photos, they were analyzed by ImageJ, NIH software. The neurite outgrowth was estimated by fractal dimension (Df), a statistical parameter that describes the fractional space (area and length) filled by neurite outgrowth. Df ranged from 0 to 1.20. This method estimates the amount of picsel covered by neurites/cells compared to empty space per square field, and therefore plotting log (number of square boxes) vs. log (size in pixels) relationship generates a linear curve with Df representing the slope of the curve. Every photograph that was taken, was opened in a Photoshop software and a new layer was generated on it. Using a 5-pixel wide digital pencil tool, all the outgrowths were marked and the layer with the markers (outgrowth network) was saved in a 0-255 gray scale as described in FIG. 2. Then, the saved layer was opened by ImageJ NIH software. The software “skeletonized” the layer, measured the length and complexity of every outgrowth in a fractal box count and calculated the fractional dimension parameter (Df).^32
Each experiment was performed in duplicates and repeated three to four times (n=6-8). By using SPSS software, one way ANOVA was performed for the fractional dimension of each compound, in order to evaluate the neurotropic effect. In case of significance, Bonferroni post-hoc analysis was performed. The results were considered significant when p<0.05.

[2] = system: Gamma-aminobutyric acid Receptor A (GABAA); type: cell-based; settings: 10 μM HU-MCA-13
[3] = target: T1, 5-Hydroxytryptamine (Serotonin) Receptor 3A (HTR3A) (Homo sapiens, UniProt P46098); assay: SAFETYscan HTR3A Ion channel; type: cell-based; settings: 10 μM HU-MCA-13, read-out: Maximal Response
T1 construct: DiscoverX (SAFETYscan contract panel)

[4] = target: T2, N-methyl-D-aspartate (NMDA) Glutamate Receptor 1A/2B (NMDAR (1A/2B)) (Homo sapiens, UniProt Q05586+Q13224); assay: SAFETYscan NMDAR (1A/2B) Ion channel; type: cell-based; settings: Blocker mode; 10 μM HU-MCA-13; read-out: Maximal Response
T2 construct: DiscoverX (SAFETYscan contract panel)

[5] = target: T3, Rho Associated Coiled-Coil Containing Protein Kinase 1 (serine-threonine kinase) (ROCK1) (Homo sapiens, UniProt Q13464); assay: SAFETYscan ROCK1 kinase Binding; settings: Inhibitor mode, 10 μM HU-MCA-13, read-out: Maximal Response
T3 construct: DiscoverX (KINOMEscan)

[6] = target: T4, Serotonin transporter (SERT) (Homo sapiens, UniProt P31645); assay: cell-based; settings: Blocker mode; 10 μM HU-MCA-13; read-out: Maximal Response
T4 construct: DiscoverX (SAFETYscan contract panel)
T4 sequence (P31645 whole entry): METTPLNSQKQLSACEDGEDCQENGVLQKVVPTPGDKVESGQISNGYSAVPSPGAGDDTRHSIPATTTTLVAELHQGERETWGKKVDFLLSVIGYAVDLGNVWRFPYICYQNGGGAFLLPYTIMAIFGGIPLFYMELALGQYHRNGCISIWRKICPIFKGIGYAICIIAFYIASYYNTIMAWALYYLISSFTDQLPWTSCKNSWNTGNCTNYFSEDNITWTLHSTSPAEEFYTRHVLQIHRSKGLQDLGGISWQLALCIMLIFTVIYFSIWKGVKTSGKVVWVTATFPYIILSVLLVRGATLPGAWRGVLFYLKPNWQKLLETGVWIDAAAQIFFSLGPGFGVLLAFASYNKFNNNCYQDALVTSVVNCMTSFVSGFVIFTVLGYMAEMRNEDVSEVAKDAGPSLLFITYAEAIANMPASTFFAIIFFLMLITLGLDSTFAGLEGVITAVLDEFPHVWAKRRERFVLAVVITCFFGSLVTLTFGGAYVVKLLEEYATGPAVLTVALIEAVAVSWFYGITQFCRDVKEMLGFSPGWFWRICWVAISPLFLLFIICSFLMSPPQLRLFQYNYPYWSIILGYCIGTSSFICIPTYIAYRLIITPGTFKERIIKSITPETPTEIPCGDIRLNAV

T1 sequence (P46098 24-478): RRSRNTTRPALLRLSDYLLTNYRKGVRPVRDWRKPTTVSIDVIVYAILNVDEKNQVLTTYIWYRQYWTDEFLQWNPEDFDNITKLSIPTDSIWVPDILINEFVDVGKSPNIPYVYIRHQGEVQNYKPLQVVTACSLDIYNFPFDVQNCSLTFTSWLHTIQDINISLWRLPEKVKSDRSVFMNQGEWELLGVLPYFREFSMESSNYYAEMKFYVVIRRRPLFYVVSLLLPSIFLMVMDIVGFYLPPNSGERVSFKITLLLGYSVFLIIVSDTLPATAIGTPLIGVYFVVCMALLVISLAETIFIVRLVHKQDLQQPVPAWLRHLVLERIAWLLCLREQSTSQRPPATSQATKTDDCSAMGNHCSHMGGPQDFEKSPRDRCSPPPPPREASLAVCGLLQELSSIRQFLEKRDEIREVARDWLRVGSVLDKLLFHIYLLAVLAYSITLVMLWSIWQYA
T3 sequence (Q13464 whole entry): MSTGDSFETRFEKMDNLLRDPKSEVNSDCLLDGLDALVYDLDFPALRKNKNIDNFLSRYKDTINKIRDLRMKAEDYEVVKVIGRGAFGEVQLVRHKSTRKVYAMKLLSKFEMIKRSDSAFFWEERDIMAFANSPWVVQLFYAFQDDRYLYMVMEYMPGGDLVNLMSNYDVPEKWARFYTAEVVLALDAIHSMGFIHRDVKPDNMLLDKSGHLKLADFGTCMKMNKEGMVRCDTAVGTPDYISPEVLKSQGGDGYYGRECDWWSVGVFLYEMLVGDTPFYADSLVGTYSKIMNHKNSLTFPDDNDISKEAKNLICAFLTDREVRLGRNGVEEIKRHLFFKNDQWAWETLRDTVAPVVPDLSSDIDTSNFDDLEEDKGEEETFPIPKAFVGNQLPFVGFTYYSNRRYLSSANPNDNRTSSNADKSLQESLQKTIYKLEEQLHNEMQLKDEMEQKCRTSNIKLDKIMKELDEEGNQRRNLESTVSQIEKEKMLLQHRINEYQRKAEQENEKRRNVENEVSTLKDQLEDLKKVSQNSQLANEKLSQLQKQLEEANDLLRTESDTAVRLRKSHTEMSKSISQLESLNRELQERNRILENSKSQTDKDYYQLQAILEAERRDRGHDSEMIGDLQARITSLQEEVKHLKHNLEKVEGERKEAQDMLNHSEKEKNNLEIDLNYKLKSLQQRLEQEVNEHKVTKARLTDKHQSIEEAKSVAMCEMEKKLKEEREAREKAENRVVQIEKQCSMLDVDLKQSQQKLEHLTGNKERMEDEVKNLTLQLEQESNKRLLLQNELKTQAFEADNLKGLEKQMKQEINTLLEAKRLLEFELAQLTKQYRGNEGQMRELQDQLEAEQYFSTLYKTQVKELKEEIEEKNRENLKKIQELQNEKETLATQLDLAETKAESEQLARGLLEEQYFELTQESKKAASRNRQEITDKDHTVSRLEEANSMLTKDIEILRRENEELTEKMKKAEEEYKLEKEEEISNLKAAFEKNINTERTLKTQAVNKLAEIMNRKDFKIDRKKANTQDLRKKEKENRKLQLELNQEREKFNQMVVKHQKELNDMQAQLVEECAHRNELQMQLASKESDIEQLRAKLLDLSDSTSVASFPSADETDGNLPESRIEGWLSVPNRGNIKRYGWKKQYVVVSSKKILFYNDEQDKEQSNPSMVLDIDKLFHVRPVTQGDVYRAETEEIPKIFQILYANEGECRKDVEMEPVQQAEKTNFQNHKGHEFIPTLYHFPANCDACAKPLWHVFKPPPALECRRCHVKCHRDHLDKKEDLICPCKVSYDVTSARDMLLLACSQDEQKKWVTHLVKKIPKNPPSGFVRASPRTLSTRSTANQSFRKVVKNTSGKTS
T2 sequence (Q13224 27-1484, other chains not shown): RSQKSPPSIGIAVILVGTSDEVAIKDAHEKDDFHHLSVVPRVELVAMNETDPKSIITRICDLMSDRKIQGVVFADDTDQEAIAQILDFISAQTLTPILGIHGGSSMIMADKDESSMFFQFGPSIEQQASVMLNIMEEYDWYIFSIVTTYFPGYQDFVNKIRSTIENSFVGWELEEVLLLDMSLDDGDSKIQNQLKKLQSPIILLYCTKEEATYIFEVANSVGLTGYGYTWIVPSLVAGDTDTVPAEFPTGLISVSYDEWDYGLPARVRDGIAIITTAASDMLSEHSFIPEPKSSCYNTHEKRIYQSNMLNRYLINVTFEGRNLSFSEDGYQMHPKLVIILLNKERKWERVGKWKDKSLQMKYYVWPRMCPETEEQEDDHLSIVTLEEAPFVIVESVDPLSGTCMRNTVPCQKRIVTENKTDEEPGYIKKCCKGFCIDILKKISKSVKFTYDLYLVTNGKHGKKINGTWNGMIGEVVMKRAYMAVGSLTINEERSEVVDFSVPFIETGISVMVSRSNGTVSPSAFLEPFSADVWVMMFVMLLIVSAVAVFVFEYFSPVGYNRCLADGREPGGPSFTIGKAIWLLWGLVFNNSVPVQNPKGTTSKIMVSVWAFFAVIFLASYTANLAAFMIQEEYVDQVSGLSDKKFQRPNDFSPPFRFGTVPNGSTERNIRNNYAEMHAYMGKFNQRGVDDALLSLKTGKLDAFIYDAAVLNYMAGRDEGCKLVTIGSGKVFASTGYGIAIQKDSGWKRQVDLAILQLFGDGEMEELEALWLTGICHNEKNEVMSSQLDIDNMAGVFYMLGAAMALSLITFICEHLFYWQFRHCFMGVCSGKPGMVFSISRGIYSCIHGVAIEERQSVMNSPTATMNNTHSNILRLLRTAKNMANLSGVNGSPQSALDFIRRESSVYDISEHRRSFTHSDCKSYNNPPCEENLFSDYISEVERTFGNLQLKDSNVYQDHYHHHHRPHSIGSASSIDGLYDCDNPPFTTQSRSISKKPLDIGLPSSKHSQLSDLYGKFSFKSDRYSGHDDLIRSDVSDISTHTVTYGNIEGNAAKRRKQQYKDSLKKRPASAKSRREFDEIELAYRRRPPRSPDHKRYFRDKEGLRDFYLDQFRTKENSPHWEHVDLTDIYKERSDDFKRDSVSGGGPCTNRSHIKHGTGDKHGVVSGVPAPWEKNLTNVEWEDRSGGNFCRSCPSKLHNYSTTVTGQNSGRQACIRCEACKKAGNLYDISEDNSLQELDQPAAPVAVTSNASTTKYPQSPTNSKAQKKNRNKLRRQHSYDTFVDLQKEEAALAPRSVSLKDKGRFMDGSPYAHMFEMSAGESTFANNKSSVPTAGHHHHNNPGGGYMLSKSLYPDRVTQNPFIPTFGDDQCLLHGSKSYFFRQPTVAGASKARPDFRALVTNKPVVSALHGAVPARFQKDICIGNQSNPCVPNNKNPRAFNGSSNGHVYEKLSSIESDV

## C=CCC1CCC[C@@H](CCC(=O)O)C1=C (stereo partly shown) [Compound 13]
[1]; PC12 cells, seven days of treatment, Df = fractal dimension of neurite outgrowth
  Neurotropic effect (mean ± SE) Seven Days Df: 0.45 ± 0.01
[1]; PC12 cells, two days of treatment, Df = fractal dimension of neurite outgrowth
  Neurotropic effect (mean ± SE) Two Days Df: 0.39 ± 0.01
[1]; seven days, relative to NGF 50 ng/ml
  Neurotropic effect Seven Days NGF (%): 97.8%
[1]; two days, relative to NGF 50 ng/ml
  Neurotropic effect Two Days NGF (%): 84.8%
[1]; after seven days of treatment
  neurotropic activity (in words): significant neurotropic activity
[1]; after two days of treatment
  inducing fast neurite outgrowth (in words): most active
[2]; Blocker mode
  Maximal Response: 7.74%
[2]; Opener mode
  Maximal Response: 3.68%
[3]; Blocker mode
  Emax: 0.19%
[3]; Opener mode
  Emax: 0%
[4]
  Emax: 0%
[5]
  Emax: 21.6%
[6]
  Emax: 15.4%
